A word on the pIC50: it is −log10 of the IC50, conventionally taken in molar units.

pIC50: −log10 of the molar value.

The target in one experiment is human HPK1 (MAP4K1) (Homo sapiens (Human), UniProt Q92918). Description: HPK1 IC50 Assay (TR-FRET biochemical kinase assay, STK S1 peptide substrate). To be noted: recombinant human HPK1 kinase domain 0.15 nM, 10 μM ATP, 1 μM STK S1 peptide; geometric mean. The method, then: The enzymatic activity of human HPK1 (MAP4K1) was monitored in a biochemical assay in the presence or absence of compounds and using a synthetic peptide substrate. An increase in phosphorylation of the peptide by HPK1 was indicative of its kinase activity.
Sequence of human HPK1 (MAP4K1) (Q92918 17-274): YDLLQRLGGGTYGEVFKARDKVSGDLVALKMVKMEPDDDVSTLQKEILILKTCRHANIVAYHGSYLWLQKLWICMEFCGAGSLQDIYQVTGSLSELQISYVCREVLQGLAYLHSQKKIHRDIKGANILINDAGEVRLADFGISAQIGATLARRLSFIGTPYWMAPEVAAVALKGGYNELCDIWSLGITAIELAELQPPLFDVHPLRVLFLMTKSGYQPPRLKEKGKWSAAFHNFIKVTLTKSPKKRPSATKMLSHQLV
Recombinant HPK1 kinase domain produced via baculovirus infection of insect cells was obtained from Proteros (Proteros Biostructures #PR-0322) and was pre-activated in the presence of 2 mM ATP (Sigma-Aldrich, cat #GE27-2056-01) and 2 mM magnesium chloride for 16 hours at 4° C. The protein reaction mixture was then loaded to a desalting column (Thermo Fisher Scientific, Cat #89889) to remove excess ATP. HPK1 was eluted with buffer containing 20 mM Tris (2-Amino-2-(hydroxymethyl)propane-1,3-diol) pH 8.0, 150 mM NaCl, 2 mM dithiothreitol and 5% glycerol, and was frozen at −80° C. for later use.
Ten nanoliters of test compounds dissolved in DMSO at various concentrations were dispensed into a 384-well ProxiPlate (PerkinElmer #6008289). Five microliters of a solution of recombinant HPK1 diluted in HPK1 kinase assay buffer (50 mM BES [N,N-Bis(2-hydroxyethyl)-2-aminoethanesulfonic acid], pH 7.0; 10 mM magnesium chloride; 0.01% Triton X-100; 1 mM dithiothreitol; 0.01% bovine serum albumin; 0.1 mM sodium orthovanadate) was added to the compound-containing plate and was incubated for 15 minutes at 25° C. Five microliters of a mixture of ATP (Sigma-Aldrich #A6559) and peptide substrate STK S1 (Cisbio #61ST1BLC) diluted in HPK1 kinase assay buffer was then added to start the reaction. Final concentrations were 0.15 nM for HPK1, 10 μM for ATP, and 1 μM for the STK S1 peptide substrate. The reaction mixture was incubated at 25° C. for 3 hours and was stopped with the addition of 10 μl of an EDTA (Ethylenediaminetetraacetic acid)-containing detection buffer (Cisbio #62SDBRDF) supplemented with Europium cryptate-labeled anti-phospho-serine/threonine antibodies (Cisbio #62ST1PEJ) and XL665-labeled streptavidin (Cisbio #610SAXLG). The mixture was incubated for 16 hours at room temperature and peptide phosphorylation was measured by time-resolved fluorescence energy transfer (665 nm/620 nm) on an Envision plate reader (PerkinElmer).
Data in Table 1 were normalized based on positive (staurosporine) and negative (DMSO) controls. Least squares curve fittings were performed using a four-parameter variable slope nonlinear regression model. IC50 is defined as the concentration of compound required to inhibit 50% of maximum phosphorylation. IC50 values from multiple experiments were averaged by geometric mean and the standard deviation was calculated.
In general terms: TR-FRET usually uses a lanthanide donor and a delayed reading to cut background.
Consider `CNC(=O)c1ccc(F)c(Nc2nc(-c3ccc4c(c3)N([C@H]3C[C@@H](N5CCCCC5)C3)C(=O)C4(C)C)cc3ncn(C(C)C)c23)n1` [Example 104], for which the pIC50 was 8.85.

With `CO[C@H](C)C(=O)N1CCC2(CC1)C(=O)N([C@H]1C[C@@H](N3CCCCC3)C1)c1cc(-c3cc4ncn(C(C)C)c4c(Nc4ccncc4F)n3)ccc12` [Example 153], the pIC50 was 9.52.

For `CC(C)n1cnc2cc(-c3ccc4c(c3)N([C@H]3C[C@@H](N5CCC(C)(C)C5)C3)C(=O)C43CCN(C(=O)c4ccon4)CC3)nc(Nc3ccncc3F)c21` [Example 155], the pIC50 is 9.52.

In the case of `CNC(=O)c1cc(Nc2nc(-c3ccc4c(c3)N([C@H]3C[C@@H](N5CCCCC5)C3)C(=O)C4(C)C)cc3ncn(C(C)C)c23)ncc1C` [Example 194, 2-((6-(3,3-dimethyl-2-oxo-1-((1s,3s)-3-(piperidin-1-yl)cyclobutyl)indolin-6-yl)-3-isopropyl-3H-imidazo[4,5-c]pyridin-4-yl)amino)-N,5-dimethylisonicotinamide], the negative logarithm of the IC50 (pIC50) is 8.02.

Consider `CCn1cnc2cc(-c3ccc4c(c3)N([C@H]3C[C@@H](N5CCCCC5)C3)C(=O)C43CCN(C4COC4)CC3)nc(Nc3ccncc3F)c21` [Example 175], for which the pIC50 was 9.10.

Take `CC(C)n1cnc2cc(-c3ccc4c(c3)N([C@H]3C[C@@H](N5C[C@H]6CC[C@H]6C5)C3)C(=O)C43CCN(C(=O)[C@@H]4CCCO4)CC3)nc(Nc3ccncc3F)c21` [Example 111]: the pIC50 is 10.10.

Take `COC(C)(C)C(=O)N1CCC2(CC1)C(=O)N([C@H]1C[C@@H](N3CCCCC3)C1)c1cc(-c3cc4ncn(C(C)C)c4c(Nc4ccncc4F)n3)ccc12` [Example 145]: the negative logarithm of the IC50 (pIC50) was 9.40.

As to `CC(C)n1cnc2cc(-c3ccc4c(c3)N([C@H]3C[C@@H](N5CCC(C)(C)C5)C3)C(=O)C43CCN(C(=O)c4ncon4)CC3)nc(Nc3ccncc3F)c21` [Example 160], the pIC50 was 9.40.

In the case of `CCC1(C(=O)N2CCC3(CC2)C(=O)N([C@H]2C[C@@H](N4CCCCC4)C2)c2cc(-c4cc5ncn(C(C)C)c5c(Nc5ccncc5F)n4)ccc23)COC1` [Example 138], the negative logarithm of the IC50 (pIC50) was 9.70.

Consider `CC(=O)N1CCC2(CC1)C(=O)N([C@H]1C[C@@H](N3CCCCCC3)C1)c1cc(-c3cc4ncn(C(C)C)c4c(Nc4ccncc4F)n3)ccc12` [Example 185], for which the pIC50 was 10.00.

Take `Cc1cnc(Nc2nc(-c3ccc4c(c3)N([C@H]3C[C@@H](N5CCCCC5)C3)C(=O)C4(C)C)cc3ncn(C(C)C)c23)cc1C(=O)NC1(CF)CC1` [Example 195]: the pIC50 is 8.22.

Take `Cc1cc(Nc2nc(-c3ccc4c(c3)N([C@H]3C[C@@H](N5CCC(C)(C)C5)C3)C(=O)C43CCN(C(=O)C(C)(C)CO)CC3)cc3ncn(C(C)C)c23)c(F)cn1` [Example 131]: the pIC50 was 9.22.

Consider `CC[C@@H](O)C(=O)N1CCC2(CC1)C(=O)N([C@H]1C[C@@H](N3CCCCC3)C1)c1cc(-c3cc4ncn(C(C)C)c4c(Nc4ccncc4F)n3)ccc12` [Example 114], for which the negative-log IC50 (pIC50) is 9.40.

In the case of `CC(C)[C@H](O)C(=O)N1CCC2(CC1)C(=O)N([C@H]1C[C@@H](N3CCC(C)(C)C3)C1)c1cc(-c3cc4ncn(C(C)C)c4c(Nc4ccncc4F)n3)ccc12` [Example 119], the negative-log IC50 (pIC50) is 9.70.

The same experiment, now with this note: recombinant human HPK1 kinase domain 0.15 nM, 10 μM ATP, 1 μM STK S1 peptide; geometric mean of multiple experiments.
For `CC(C)n1cnc2cc(-c3ccc4c(c3)N([C@H]3C[C@@H](N5CCCC(C)(F)C5)C3)C(=O)C43CCN(C4COC4)CC3)nc(Nc3ccncc3F)c21` (some centres unmarked) [Example 80], the negative-log IC50 (pIC50) was 9.40.

As for `CC(C)n1cnc2cc(-c3ccc4c(c3)N([C@H]3C[C@@H](NCC(C)(C)O)C3)C(=O)C4(C)C)nc(Nc3ccncc3F)c21` [Example 52, 6-(4-((3-fluoropyridin-4-yl)amino)-3-isopropyl-3H-imidazo[4,5-c]pyridin-6-yl)-1-((1s,3s)-3-((2-hydroxy-2-methylpropyl)amino)cyclobutyl)-3,3-dimethylindolin-2-one], the pIC50 was 8.80.

`CC(C)n1cnc2cc(-c3ccc4c(c3)N([C@H]3C[C@@H](N5CCCCC5)C3)C(=O)C4(C)C)nc(Nc3ccncc3F)c21` [Example 83]: the pIC50 was 9.10.

Regarding `CC(C)n1cnc2cc(-c3ccc4c(c3)N([C@H]3C[C@@H](N5CCC(C)(C)C5)C3)C(=O)C43CCN(C(=O)C4(C)CCOC4)CC3)nc(Nc3ccncc3F)c21` (some centres unmarked) [Example 18], the pIC50 was 9.52.

For `CC(C)n1cnc2cc(-c3ccc4c(c3)N([C@H]3C[C@@H](N5CCCCCC5)C3)C(=O)C4(C)C)nc(Nc3ccncc3F)c21` [Example 59], the negative-log IC50 (pIC50) was 10.05.

As to `CC(C)n1cnc2cc(-c3ccc4c(c3)N([C@H]3C[C@@H](N5C[C@@H](C)[C@@H](C)C5)C3)C(=O)C43CCN(C(=O)C4(C)COC4)CC3)nc(Nc3ccncc3F)c21` [Example 8], the negative logarithm of the IC50 (pIC50) was 9.70.

`CC(C)n1cnc2cc(-c3ccc4c(c3)N([C@H]3C[C@@H](N5CCC(C)(C)C5)C3)C(=O)C43CCN(C(=O)C4CCOCC4)CC3)nc(Nc3ccncc3F)c21` [Example 23]: the pIC50 is 9.70.

Regarding `CCn1cnc2cc(-c3ccc4c(c3)N([C@H]3C[C@@H](N5CCCCC5)C3)C(=O)C43CCN(C(=O)[C@@H](C)O)CC3)nc(Nc3ccc(F)nc3F)c21` [Example 73], the pIC50 was 9.70.

`CC(C)n1cnc2cc(-c3ccc4c(c3)N([C@H]3C[C@@H](N5CCC(C)(C)C5)C3)C(=O)C43CCN(C(=O)[C@@H]4CC[C@H](C)O4)CC3)nc(Nc3ccncc3F)c21` [Example 20B, 1-((1s,3R)-3-(3,3-dimethylpyrrolidin-1-yl)cyclobutyl)-6-(4-((3-fluoropyridin-4-yl)amino)-3-isopropyl-3H-imidazo[4,5-c]pyridin-6-yl)-1′-((2S,5 S)-5-methyltetrahydrofuran-2-carbonyl)spiro[indoline-3,4′-piperidin]-2-one]: the pIC50 is 10.30.

Turning to `CC(C)n1cnc2cc(-c3ccc4c(c3)N([C@H]3C[C@@H](N5CCCCC5)C3)C(=O)C4(C)C)nc(Nc3ccnc(F)c3F)c21` [Example 94], the pIC50 is 9.52.

In the case of `CC(=O)N1CCC2(CC1)C(=O)N([C@H]1C[C@@H](N3CCCCC3)C1)c1cc(-c3cc4ncn(C(C)C)c4c(Nc4ccncc4F)n3)ccc12` [Example 67, 1′-acetyl-6-(4-((3-fluoropyridin-4-yl)amino)-3-isopropyl-3H-imidazo[4,5-c]pyridin-6-yl)-1-((1s,3s)-3-(piperidin-1-yl)cyclobutyl)spiro[indoline-3,4′-piperidin]-2-one], the negative logarithm of the IC50 (pIC50) was 9.30.

Take `CC(=O)N1CCC2(CC1)C(=O)N([C@H]1C[C@@H](N3CCCCC3)C1)c1cc(-c3cc4ncn(C(C)C)c4c(Nc4cc(C)ncc4F)n3)ccc12` [Example 31]: the negative logarithm of the IC50 (pIC50) was 8.96.

Consider `CC(=O)N1CCC2(CC1)C(=O)N([C@H]1C[C@@H](N3CC4CCC(C3)O4)C1)c1cc(-c3cc4ncn(C(C)C)c4c(Nc4ccncc4F)n3)ccc12` [Example 34], for which the negative-log IC50 (pIC50) is 9.70.

`CC(C)n1cnc2cc(-c3ccc4c(c3)N([C@H]3C[C@@H](N5C[C@@H](O)C(C)(C)C5)C3)C(=O)C43CCN(C4COC4)CC3)nc(Nc3ccncc3F)c21` [Example 40]: the pIC50 is 9.22.

Turning to `CC(C)n1cnc2cc(-c3ccc4c(c3)N([C@H]3C[C@@H](N5CC6CCC5CC6)C3)C(=O)C4(C)C)nc(Nc3ccncc3F)c21` [Example 58], the pIC50 is 9.15.

On to `CC(C)n1cnc2cc(-c3cnc4c(c3)N([C@H]3C[C@@H](N5CCCCC5)C3)C(=O)C4(C)C)nc(Nc3ccncc3F)c21` [Example 51], for which the negative logarithm of the IC50 (pIC50) is 7.88.

For the compound `CC(C)n1cnc2cc(-c3ccc4c(c3)N([C@H]3C[C@@H](N5CCC(C)(C)C5)C3)C(=O)C43CCN(C(=O)CC4COC4)CC3)nc(Nc3ccncc3F)c21` [Example 21], the pIC50 was 9.40.

On to `CC(=O)N1CCC2(CC1)C(=O)N([C@H]1C[C@@H](N3CCC(C)(C)C3)C1)c1cc(-c3cc4ncn(C(C)C)c4c(Nc4ccncc4F)n3)ccc12` [Example 29], for which the pIC50 was 9.40.

As to `CC(C)n1cnc2cc(-c3ccc4c(c3)N([C@H]3C[C@@H](N5CC[C@H](C)C5)C3)C(=O)C43CCN(C4COC4)CC3)nc(Nc3ccncc3F)c21` [Example 47], the negative logarithm of the IC50 (pIC50) was 8.80.

As for `CC(C)n1cnc2cc(-c3ccc4c(c3)N([C@H]3C[C@@H](N5CCC6(CC6)C5)C3)C(=O)C4(C)C)nc(Nc3ccncc3F)c21` [Example 56], the pIC50 is 9.10.

On to `CC(C)n1cnc2cc(-c3ccc4c(c3)N([C@H]3C[C@@H](N5CCC(C)(C)C5)C3)C(=O)C43CCN(C(=O)C4COC4)CC3)nc(Nc3ccncc3F)c21` [Example 76], for which the negative-log IC50 (pIC50) is 9.30.

Source of the values: patent publication US11071730B2, “Substituted 6-azabenzimidazole compounds” (Gilead Sciences, Inc., priority 2018, dated 2021).
